Test results taken from US12686668B2, “Leukotriene synthesis inhibitors” (Naegis Pharmaceuticals Inc., priority 2019, dated 2026).

Columns and labels:
[1] = system: LTC4 production in MC/9 cells; experiment: MC/9 HPLC assay, inhibition of LTC4 production; assay type: cell-based; details: Mus musculus; for inhibition at 1 µM: MC9, Table 2 column 3, no concentration in head (1 μM according to b732), read-out: % Inhibition LTC4; for inhibition at 3 µM: MC9, 3 μM, A23187 stimulated
Protocol: (§1) Cultured MC/9 cells (3×10^6 cells) in 1 mL HBSS were pre-incubated with a series of concentrations of compound solubilized in DMSO for 30 minutes. Production of leukotrienes were stimulated with the addition of 1 μM calcium ionophore (A23187), diluted from a 4 mM DMSO stock in HBSS, and incubated at room temperature for 20 minutes. The reaction was stopped with the addition of 500 μL of methanol containing 20 ng/mL prostaglandin B2 as an internal standard. Samples were collected and stored at −20° C. at least 2 hr or overnight before centrifuged at 13,000 rpm for 15 minutes and loaded onto C18 SEP-PAK columns (Canadian Lifesciences IS12000) for solid phase extraction. The leukotrienes were analyzed by HPLC using an ACE C18 column (4.5 mm×150 mm, 5 m) eluted with acetonitrile/methanol/water mixture with H3PO4, pH 3.5 (37:26:37) with a flow rate of 1.8 mL/min. The amount of LTB4 (Cayman Chemical, 20110) and LTC4 (Cayman Chemical, 20210) were calculated based on reference standards and the level of inhibition of LTB4 production induced by the test compounds was calculated relative to control samples. The results are provided in Table 2, where Compound No. refers to the compounds identified in Table 1.

[2] = system: LTB4 production in MC/9 cells; experiment: MC/9 HPLC assay, inhibition of LTB4 production; assay type: cell-based; details: Mus musculus, MC9, Table 2 column 4, no concentration in head (1 μM according to b732), read-out: % Inhibition LTB4
Protocol: as §1

Compound	inhibition at 1 µM [1] [%]	inhibition at 1 µM [2] [%]	inhibition at 3 µM [1] [%]
CCC(=O)CCc1ccc(Oc2nc3ccccc3s2)c(OC)c1 [Compound 101, 1-[4-(1,3-benzothiazol-2-yloxy)-3-methoxyphenyl]pentan-3-one]	< 10	< 10	
COc1cc(CCC(C)=O)ccc1Oc1nc2ccccc2s1 [Compound 110, 4-[4-(1,3-benzothiazol-2-yloxy)-3-methoxyphenyl]butan-2-one]	< 10	< 10	
COc1cc(CCC(C)(O)C(F)(F)F)ccc1Oc1nc2ccccc2s1 (centres unmarked) [Compound 111, 4-[4-(1,3-benzothiazol-2-yloxy)-3-methoxyphenyl]-1,1,1-trifluoro-2-methylbutan-2-ol]			70 to 90
CCC(O)(CCc1ccc(Oc2nc3ccccc3s2)c(OC2CCCC2)c1)C(F)(F)F (centres unmarked) [Compound 116, 1-[4-(1,3-benzothiazol-2-yloxy)-3-(cyclopentyloxy)-phenyl]-3-(trifluoromethyl)-pentan-3-ol]	< 10	< 10	
CCOc1cc(CCC(=O)CC)ccc1Oc1nc2ccccc2s1 [Compound 120, 1-[4-(1,3-benzothiazol-2-yloxy)-3-ethoxyphenyl]-pentan-3-one]			70 to 90
COc1cc(CCC(C)O)ccc1Oc1nc2ccccc2s1 (centres unmarked) [Compound 122, 4-[4-(1,3-benzothiazol-2-yloxy)-3-methoxyphenyl]-butan-2-ol]	30 to 50	30 to 50	
COc1cc(CCC(C)(C)O)ccc1Oc1nc2ccccc2s1 [Compound 124, 4-[4-(1,3-benzothiazol-2-yloxy)-3-methoxyphenyl]-2-methylbutan-2-ol]	10 to 30		
COc1cc(CCC(C)(C)O)ccc1Oc1nc2ccccc2o1 [Compound 126, 4-[4-(1,3-benzoxazol-2-yloxy)-3-methoxyphenyl]-2-methylbutan-2-ol]	< 10	10 to 30	
COc1cc(CCC(=O)c2ccccc2)ccc1Oc1nc2ccccc2s1 [Compound 131, 3-[4-(1,3-benzothiazol-2-yloxy)-3-methoxyphenyl]-1-phenylpropan-1-one]			50 to 70
CCC(CCc1ccc(Oc2nc3ccccc3s2)c(OC)c1)N1CCOCC1 (centres unmarked) [Compound 136, 4-{1-[3-methoxy-4-(1,3-benzothiazol-2-yloxy)phenyl]pentan-3-yl}morpholine]			10 to 30
CC(=O)c1ccc(Oc2nc3ccccc3s2)cc1 [Compound 159, 1-[4-(1,3-benzothiazol-2-yloxy)phenyl]ethanone]			10 to 30
CCC(C)(O)c1ccc(Oc2nc3ccccc3s2)cc1 (centres unmarked) [Compound 161, 2-[4-(1,3-benzothiazol-2-yloxy)phenyl]butan-2-ol]			< 10
CC(c1ccc(Oc2nc3ccccc3s2)cc1)N1CCCC1 (centres unmarked) [Compound 162, 2-{4-[1-(pyrrolidin-1-yl)ethyl]phenoxy}-1,3-benzothiazole]			< 10
CCNC(c1ccc(Oc2nc3ccccc3s2)cc1)C(F)(F)F (centres unmarked) [Compound 168, 1-[4-(1,3-benzothiazol-2-yloxy)phenyl]-N-ethyl-2,2,2-trifluoroethanamine]			< 10
Cc1nc2ccc(Oc3ccc(C(C)(O)C(F)(F)F)cc3)cc2s1 (centres unmarked) [Compound 170, 1,1,1-trifluoro-2-{4-[(2-methyl-1,3-benzothiazol-6-yl)oxy]phenyl}propan-2-ol]			> 90
Cc1nc2ccc(Oc3ccc(C(C)O)cc3)cc2s1 (centres unmarked) [Compound 171, 1-{4-[(2-methyl-1,3-benzothiazol-6-yl)oxy]phenyl}ethanol]			70 to 90
CC(=O)CCc1ccc(OCc2ccc3ccccc3n2)cc1 [Compound 189, 4-{4-[(quinolinyl-2-yl)methoxy]phenyl}butan-2-one]			70 to 90
CCC(O)CCc1ccc(Oc2nc3ccccc3s2)c(OC)c1 (centres unmarked) [Compound 196, 1-[4-(1,3-benzothiazol-2-yloxy)-3-methoxyphenyl]pentan-3-ol]			> 90
